Literature values in US4644054A, “Calcitonin analogs with amino acid substituents at position 31” (priority 1985, dated 1987).
Bridge positions count the residues as written; N and C are the ends. Ends that are not written are not given here.

Details: compared with natural human calcitonin

Substance | activity relative to natural human calcitonin
Salmon 1 calcitonin | thirty to forty times more active
human calcitonin analog with Serine^29 and Threonine^31substituents: human calcitonin analog with Serine at position 29 and Threonine at position 31 (Maier et al. 1974) (CGNLSTCMLGTYTQDFNKFHTFPQTAIGSGTP; disulfide 1-7; ends not checked; UniProt P01258 85-116, looked up, variant V29S A31T) | five times more active
